Experimental data reported in a melting point compilation (Tetko et al.; mined from patent text by program, amines drawn as free bases though some values may be those of a salt).

Row | melting point [°C] | Structure (SMILES)
1 | 78 to 81 | Cc1ccccc1-c1cccc(F)c1C(=O)NCCCl
2 | 119 to 120 | CCOC(=O)C1=C(C(F)(F)F)Nc2n[nH]cc2C1c1cccc2ccccc12 (stereo not given)
3 | 138 to 140 | Cc1ccc(F)cc1C(=O)N1Cc2cccnc2Nc2ccccc21
4 | 130 to 136 | C#CCNC(=S)NC1CCC(=O)c2sccc21 (stereo not given)
5 | 140 to 142 | O=C(O)c1ccc(F)s1
6 | 174 to 175 | N#Cc1cnc2c(sc3ccccc32)c1Oc1ccc(Cl)cc1F
7 | 165 to 166 | CNC(=O)c1cccc(NC(=O)Cc2cccc(Cl)c2)c1
8 | 195 to 196 | CCc1nc2c(N)nc3ccccc3c2n1CCCC1(C)OCCO1
9 | 79 | CC(=O)Oc1c(C(C)(C)C)cc(O)c(C=O)c1C(C)(C)C
10 | 219 to 221 | NS(=O)(=O)c1ccc(NN=Cc2ccc(Cl)cc2Cl)cc1
11 | > 250 | O=c1[nH]cc(-c2ccncn2)cc1Br
12 | 130 to 134 | CN(C)C=C(C#N)C=NN(C)C
13 | 202 to 203 | O=C(CCl)N[C@@H]1CCCC[C@H]1NC(=O)CCl (relative stereo)
14 | 124 to 126 | COc1cc(C(=O)N(C(C)C)C2CCCCC2)ccc1Cn1c(CO)nc2cccnc21
15 | 189 | CC(SC1COC(C2([N+](=O)[O-])C=CC(C(=O)Nc3ccccc3)=CC2)OC1)C(O)(Cn1cncn1)c1ccc(F)cc1F (stereo not given)
16 | 201 to 203 | NS(=O)(=O)c1ccc(NC(=O)C(=O)N2CCC(Cc3ccc(F)cc3)CC2)cc1
17 | 68 to 70 | CCOC(=O)Nn1cccc1C(=O)c1ccccc1
18 | 154 to 155 | CCC1(C)OC(c2ccc(S(N)(=O)=O)cc2)=C(c2ccc(C(C)=O)cc2)C1=O (stereo not given)
19 | 142 to 143 | CC(C)c1ccc2c(c1)c(Sc1ccccc1C(C)C)c(CC(C)(C)C(=O)O)n2Cc1ccc(Cl)cc1
20 | 145 | O=C(O)c1ccc(CC2(C(=O)O)CCCN2C(=O)Nc2cc(Cl)cc(Cl)c2)cc1 (stereo not given)
21 | 66 to 68 | Cc1cccc(COc2ccc3c(c2)[C@@H](O)[C@H](Cc2cccnc2)CO3)n1 (relative stereo)
22 | > 230 | Cc1c(C)c2c(c(C)c1O)CCC(C)(CNCCc1ccc(N=C(N)c3cccs3)cc1)O2 (stereo not given)
23 | 162 to 163 | CCOCc1nc2c(N)nc3ccccc3c2n1CC1CC(c2ccccc2)N(C)O1 (stereo not given)

More lines, now with the values behind:

Row | Structure (SMILES) | melting point [°C]
24 | CCSC1=NCC(=O)N1c1ccc(C)c(Cl)c1 | 133 to 135
25 | COc1cc(COc2cccc3c2CN(C2CCC(=O)NC2=O)C3=O)ccc1OCCN1CCCC1 (stereo not given) | 160 to 162
26 | CCCCCCCC/C(=C\C=C\C(=O)O)c1ccc(OC)cc1 | 109 to 110
27 | CCc1nc(Cl)cc(NN)n1 | 147 to 150
28 | COc1ccc2cc(C(=O)NC3N=C(c4ccccc4)c4ccccc4-n4c(C)nnc43)[nH]c2c1 (stereo not given) | 160 to 170
29 | CC(C)(C)OC(=O)Nc1ccc(-c2ccccc2F)cc1NC(=O)CC(=O)c1csc(-n2ccnc2)n1 | 115 to 130
30 | Nc1nc2c([N+](=O)[O-])cc(OC(F)(F)F)cc2s1 | 260
31 | CC[C@H](COC)n1cc(Br)nc(N2CCc3cc(Cl)cc(Cl)c32)c1=O | 150 to 152
32 | CC(C)N(C)c1ncc([N+](=O)[O-])cc1Cl | 56 to 57
33 | CCOC(=O)c1c(N2CCN(C=O)CC2)c2cc(C)ccc2n(Cc2ccccc2)c1=O | 196
34 | O=S(=O)(c1ccccc1)n1c2ccc(C=Cc3ccccc3)cc2c2c(Cl)ccnc21 | 216 to 218
35 | COc1ccc(C(=O)Nc2c(-c3cc(Cl)ccc3O)c3cc(C(F)(F)F)ccc3[nH]c2=O)cc1 | 285 to 287
36 | O=C(O)CCCCNC(=O)C(CS)Cc1ccccc1 (stereo not given) | 78 to 79
37 | Cc1c[nH]c2c(Sc3nc4cc(Cl)ccc4[nH]3)ccc([N+](=O)[O-])c12 | 252 to 253
38 | COc1ccc(NN=C(Sc2cc(C)cc(C)c2)C(C)=O)cc1 | 165 to 167
39 | OC1CCN(c2ccccc2)C12CCNCC2 (racemic) | 141 to 144
40 | O=C(O)c1c(Br)nc(-c2ccccc2)n1Cc1cc2c(cc1Cl)OCO2 | 215
41 | C#CCOc1cc(Oc2cccc(Cl)c2)ncn1 | 71.6
42 | NC1=NC2(O)c3ccc(Cl)cc3CC2(F)S1 (stereo not given) | 159
43 | CSC(C(=O)c1cc(-c2ccccc2)on1)N1CCCCC1 (stereo not given) | 113 to 115
44 | O=C(NCc1ccc(Cl)cc1)c1cn(CCc2ccccc2)c2oc(CCl)cc2c1=O | 150 to 153
45 | CC(C)c1nsc(N=C(Cl)N(C)C)c1C#N | 72 to 75
46 | CC(CN1CCCC1)N1c2ccccc2Sc2ccc(C(=O)NCC3CCCCC3)cc21 (racemic) | 120
47 | NCc1ccccc1C1CCN(c2cc3c(cc2F)c(=O)c(C(=O)O)cn3C2CC2)C1 (stereo not given) | 245 to 247
48 | CCOC(=O)N1CCN(c2nc(NC(C)=O)ccc2F)CC1 | 132 to 133
49 | Cc1c(Cl)cccc1NCc1ccccc1Cl | 63 to 66
50 | Cc1cc(C)cc(C(=O)N2CCC(N3CCC(C(=O)O)(c4ccccc4)CC3)CC2Cc2ccccc2)c1 (stereo not given) | 259
